Values joined by “and” are separate entries in the source; they are usually repeats but may differ in a detail not shown here. Identical values can stand only once. Inconclusive results and toxic doses are left out. Rule as the data show it: active = T/C of 150% or more; inactive = T/C below 125%.
Tested on: L1210 leukemia ip in BDF1 mice, survival T/C
Assay: NCI In Vivo Anticancer Drug Screen. Data for tumor model L1210 Leukemia (intraperitoneal) in B6D2F1 (BDF1) mice
Conditions: endpoint: mean survival time, higher = longer survival
Summary of the method: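 Read-out is survival time, reported as the treated-group measurement over the vehicle-control measurement.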

[1] = dose: 50.0 mg/kg/injection, schedule: Q01DX009 (ip), vehicle: Klucel (hydroxypropylcellulose) (HPC)
[2] = dose: 100.0 mg/kg/injection, schedule: Q01DX009 (ip), vehicle: Klucel (hydroxypropylcellulose) (HPC)
[3] = dose: 100.0 mg/kg/injection, schedule: Q04DX003 (ip), vehicle: Klucel (hydroxypropylcellulose) (HPC)
[4] = dose: 200.0 mg/kg/injection, schedule: Q01DX009 (ip), vehicle: Klucel (hydroxypropylcellulose) (HPC)
[5] = dose: 200.0 mg/kg/injection, schedule: Q04DX003 (ip), vehicle: Klucel (hydroxypropylcellulose) (HPC)
[6] = dose: 400.0 mg/kg/injection, schedule: Q01DX009 (ip), vehicle: Klucel (hydroxypropylcellulose) (HPC)
[7] = dose: 100.0 mg/kg/injection, schedule: Q04DX002 (ip), vehicle: saline with Tween-80

Measured: T/C

CC(=O)C1CC(CC(=O)O)C1(C)C (stereo not given)
inactive: [1] 95 % of control | [2] 100 % of control | [3] 101 % of control | [4] 97 % of control | [5] 101 % of control | dose: 400.0 mg/kg/injection, schedule: Q04DX003 (ip), vehicle: Klucel (hydroxypropylcellulose) (HPC) 97 % of control

O=C(Nc1ccc(CCO)cc1)Nc1ccccc1F
inactive: [2] 97 % of control | [4] 88 % of control | [6] 111 % of control

O=[N+]([O-])/C=C/c1ccc([N+](=O)[O-])cc1
inactive: dose: 6.25 mg/kg/injection, schedule: Q01DX005 (ip), vehicle: saline with Tween-80 110 % of control | dose: 12.5 mg/kg/injection, schedule: Q01DX005 (ip), vehicle: saline with Tween-80 104 % of control | dose: 25.0 mg/kg/injection, schedule: Q01DX005 (ip), vehicle: saline with Tween-80 114 % of control | [1] 93 % of control | [2] 97 % of control | [3] 96 % of control | [5] 104 % of control

COC(=O)C1CC(C2c3ccccc3-c3ccccc32)CCC1N (stereo not given)
inactive: dose: 200.0 mg/kg/injection, schedule: Q04DX003 (ip), vehicle: saline with Tween-80 100 % of control

Cc1cc(=O)[nH]c(N/N=C2/CCCCC2C)n1 (stereo not given)
inactive: [1] 100 % of control | [2] 95 % of control | [3] 100 % of control | [4] 100 % of control | [5] 97 % of control

C/C(=C\C(C)(C)c1ccccc1)c1ccccc1
inactive: dose: 50.0 mg/kg/injection, schedule: Q04DX003 (ip), vehicle: other 92 % of control | dose: 100.0 mg/kg/injection, schedule: Q04DX003 (ip), vehicle: other 92 % of control | dose: 200.0 mg/kg/injection, schedule: Q04DX003 (ip), vehicle: other 100 % of control

CC1(c2ccc(Cl)cc2)NC(=O)N(CC(=O)Nc2ccccc2)C1=O (stereo not given)
inactive: dose: 100.0 mg/kg/injection, schedule: Q04DX003 (ip), vehicle: acetone 101 % of control | dose: 200.0 mg/kg/injection, schedule: Q04DX003 (ip), vehicle: acetone 90 % of control | dose: 400.0 mg/kg/injection, schedule: Q04DX003 (ip), vehicle: acetone 93 % of control

C/C(=C\c1ccccc1)C(=O)C1C(c2ccccc2)CC(=O)C(C)C1c1ccccc1 (stereo not given)
inactive: dose: 50.0 mg/kg/injection, schedule: Q04DX002 (ip), vehicle: saline + alcohol 98 % of control | dose: 100.0 mg/kg/injection, schedule: Q04DX002 (ip), vehicle: saline + alcohol 91 % of control | dose: 200.0 mg/kg/injection, schedule: Q04DX002 (ip), vehicle: saline + alcohol 91 % of control

CCOC(=O)C(C(=O)OCC)C1c2ccccc2C([N+](=O)[O-])c2ccccc21 (stereo not given)
inactive: dose: 100.0 mg/kg/injection, schedule: Q01DX001 (ip), vehicle: Klucel (hydroxypropylcellulose) (HPC) 91 % of control | [2] 96 % of control | dose: 200.0 mg/kg/injection, schedule: Q01DX001 (ip), vehicle: Klucel (hydroxypropylcellulose) (HPC) 96 % of control | [4] 89 % of control | dose: 400.0 mg/kg/injection, schedule: Q01DX001 (ip), vehicle: Klucel (hydroxypropylcellulose) (HPC) 91 % of control | [6] 103 % of control

COc1ccc(N=CN(C)C)nn1
inactive: [7] 91 % of control | dose: 200.0 mg/kg/injection, schedule: Q04DX002 (ip), vehicle: saline with Tween-80 97 % of control | dose: 400.0 mg/kg/injection, schedule: Q04DX002 (ip), vehicle: saline with Tween-80 97 % of control

COc1ccc2ccccc2c1-c1c([N+](=O)[O-])ccc2ccccc12
inactive: dose: 12.5 mg/kg/injection, schedule: Q04DX002 (ip), vehicle: saline with Tween-80 97 % of control | dose: 25.0 mg/kg/injection, schedule: Q04DX002 (ip), vehicle: saline with Tween-80 90 % of control | dose: 50.0 mg/kg/injection, schedule: Q04DX002 (ip), vehicle: saline with Tween-80 87 % of control | [7] 93 % of control

Oc1cc(O)c(CN2CCCCC2)cc1CN1CCCCC1
inactive: dose: 100.0 mg/kg/injection, schedule: Q01DX001 (ip), vehicle: saline 87 % of control

CC(C)=NN=C(N)N
inactive: dose: 15.0 mg/kg/injection, schedule: Q01DX Z (ip), vehicle: carboxymethylcellulose (CMC) 100 % of control | dose: 15.0 mg/kg/injection, schedule: Q01DX Z (ip), vehicle: saline 107 % of control | dose: 30.0 mg/kg/injection, schedule: Q01DX Z (ip), vehicle: carboxymethylcellulose (CMC) 101 % of control | dose: 30.0 mg/kg/injection, schedule: Q01DX Z (ip), vehicle: saline 101 % of control | dose: 60.0 mg/kg/injection, schedule: Q01DX Z (ip), vehicle: carboxymethylcellulose (CMC) 96 % of control and 106 % of control | dose: 60.0 mg/kg/injection, schedule: Q01DX Z (ip), vehicle: saline 95 % of control | dose: 60.0 mg/kg/injection, schedule: Q01DX Z (oral), vehicle: saline 92 % of control | dose: 120.0 mg/kg/injection, schedule: Q01DX Z (ip), vehicle: carboxymethylcellulose (CMC) 93 % of control and 95 % of control | dose: 120.0 mg/kg/injection, schedule: Q01DX Z (ip), vehicle: saline 95 % of control | dose: 120.0 mg/kg/injection, schedule: Q01DX Z (oral), vehicle: carboxymethylcellulose (CMC) 106 % of control | dose: 120.0 mg/kg/injection, schedule: Q01DX Z (oral), vehicle: saline 109 % of control | dose: 240.0 mg/kg/injection, schedule: Q01DX Z (ip), vehicle: carboxymethylcellulose (CMC) 101 % of control | dose: 240.0 mg/kg/injection, schedule: Q01DX Z (ip), vehicle: saline 88 % of control | dose: 240.0 mg/kg/injection, schedule: Q01DX Z (oral), vehicle: carboxymethylcellulose (CMC) 102 % of control | dose: 240.0 mg/kg/injection, schedule: Q01DX Z (oral), vehicle: saline 97 % of control | dose: 480.0 mg/kg/injection, schedule: Q01DX Z (oral), vehicle: carboxymethylcellulose (CMC) 116 % of control | dose: 480.0 mg/kg/injection, schedule: Q01DX Z (oral), vehicle: saline 92 % of control

CC(=O)CCCC(C)C1CCC2[C@H]3CC=C4C[C@H](O)CC[C@@]4(C)C3CC[C@@]12C (stereo not given in full)
inactive: [1] 96 % of control | [2] 100 % of control | [4] 102 % of control
